We go through three molecules from patent publication US6355410B1, “Method of reducing cell proliferation by inhibiting the Na+/H+ exchanger and inducing apoptosis” (priority 1998, dated 2002).

In assay [1] the target is NHE-1 (Homo sapiens, UniProt P19634). Conditions: literature reference 19; cited from earlier work.
In assay [2] the test system is CEM cells. Kind of assay: Apoptosis (annexin-V) of CEM cells incubated with HMA. The class given is cell-based, human. Conditions: 10^-4M HMA, 5h, without HMA 2% to 9%. As for the experimental part:
(§1) Leukaemic cell lines (KG-1a and CEM) were incubated for varying periods of time with 10^−4M HMA and pHi and apoptosis measured. For both cell lines, in the absence of HMA, pHi ranged from 7.43±0.1 at time zero to 6.9±0.08 after 5h of incubation. However, after 5h with HMA, the pHi had decreased to 5.6±0.07 (n=4) for KG-1a and 6.1±0.06 (n=4) for CEM cells. In the absence of HMA, the percentage of KG-1a and CEM cells undergoing apoptosis, measured by annexin-V, ranged from 2% to 9% for the duration of the experiment, whereas by 5h in the presence of HMA, the percentage of KG-1a or CEM cells undergoing apoptosis ranged from 70-80%.
(§2) The following human leukemic cell lines were originally obtained from ATCC (Rockville, Md.): KG-1a (BM acute myelogenous leukemia), Jurkat (acute T-cell leukemia), Molt-4 (PB acute lymphoblastic leukemia), CEM (PB acute lymphoblastic leukemia), K562 (chronic myeloid leukemia), THP-1 (acute monocytic leukemia), Nalm-6 (B-cell leukemia). All cell lines were cultured in Dulbecco's Modified Eagles Medium (DMEM) containing 10% heat-inactivated fetal bovine serum (FBS). Only cells in log phase growth were used.
(§3) Two methods were used to determine if reduction in pHi induced apoptosis. […]

For assay [3], the system named is primary ALL patient leukaemic cells. Put plainly: Intracellular pH (FRIM and flow cytometry) of fresh ALL patient leukaemic cells incubated with HMA. The class given is cell-based, human. Conditions: 10^-4M HMA, 1h, 3h and 5h, values set at 5.0. The protocol: (§4) Intracellular pH was measured by both FRIM and flow cytometry, while apoptosis was measured by annexin-V and TUNEL. […] For this reason, pHi values for 1h, 3h and 5h were set at 5.0. After 1h, the proportion of cells incubated with HMA undergoing apoptosis was about 85% using annexin-V and about 60% using the TUNEL technique.
(§5) Measurement of pHi for hemopoietic cells has been described in detail elsewhere (8). Briefly, intracellular pH was measured by both flow cytometry and FRIM by incubating cells with carboxy SemiNaphthoRhodaFluor-1 acetoxymethyl ester, acetate (carboxy SNARF-1 AM, Molecular Probes, Eugene, Oreg.) for 15 min at room temperature. SNARF is excited at 488 nm and emits at 580 nm and 640 nm. The ratio of the emission wavelengths 640/580 was used (8) to estimate the pHi from a calibration curve. The calibration curve was performed using the nigericin clamp technique (21). […] Flow cytometric results were analyzed using WinList Software (Verity Software House Inc. Topsham, ME) to obtain fluorescence ratio measurements. For both flow cytometry and FRIM analysis, the calibration curves were obtained and sample pHi values determined from the fluorescence ratio values using Table Curve software (SPSS Inc., Chicago, Ill.). […]
In general terms: A flow cytometer gives signals particle by particle.

The subject of assay [4] is KG-1a cells. Put plainly: Apoptosis (annexin-V) of KG-1a cells incubated with HMA. It is filed as cell-based, human. Conditions: 10^-4M HMA, 5h, without HMA 2% to 9%. As for the experimental part:
as §1, §2, §3

In assay [5] the test system is CEM cells. Put plainly: Intracellular pH of CEM cells incubated with HMA. The class given is cell-based, human. Conditions: 10^-4M HMA, 5h, n=4, without HMA 6.9±0.08 after 5h. As for the experimental part: as §1, with “70-80%. […]” for “70-80%.”
as §5, with “temperature.” for “temperature. SNARF is excited at 488 nm and emits at 580 nm and 640 nm. The ratio of the emission wavelengths 640/580 was used (8) to estimate the pHi from a calibration curve. The calibration curve was performed using the nigericin clamp technique (21).”

Assay [6] relates to KG-1a cells. Put plainly: RNA degradation in KG-1a cells by denaturing RNA gel electrophoresis. The class given is cell-based, human. Conditions: 10^-4M HMA.
In assay [7] the test system is KG-1a cells. Put plainly: Intracellular pH of KG-1a cells incubated with HMA. The class given is cell-based, human. Conditions: 10^-4M HMA, 5h, n=4, without HMA 6.9±0.08 after 5h. As for the experimental part:
as §1, with “70-80%. […]” for “70-80%.”
as §5, with “temperature.” for “temperature. SNARF is excited at 488 nm and emits at 580 nm and 640 nm. The ratio of the emission wavelengths 640/580 was used (8) to estimate the pHi from a calibration curve. The calibration curve was performed using the nigericin clamp technique (21).”

Assay [8] has as its system normal peripheral blood cells. It is filed as cell-based, human. The protocol: (§6) Normal peripheral blood cells were incubated in the absence or presence of the NHE-1 inhibitor, 5-(N,N-hexamethylene)-amiloride (HMA), at concentrations ranging from 10^−7M to 10^−4M for up to 5h. Cells were then aliquoted so that pHi and apoptotic measurements could be performed. In these experiments, pHi was measured using both flow cytometry and fluorescence ratio imaging microscopy (FRIM). […] The proportion of necrotic cells measured by propidium iodide (PI) remained constant at about 5% in the absence or presence of HMA for each time point measured. […] It is interesting to note that both methods measured about 25% apoptotic cells when pHi was reduced to about 6.8. As shown in the next section, a pHi of 6.8 appears to be a critical value below which increased apoptosis occurs.
Two methods were used to determine if reduction in pHi induced apoptosis. The first used annexin-V conjugated to fluorescein isothiocyanate (FITC) (Pharmingen, San Diego, Calif.) to determine the translocation of phosphatidylserine from the inside to the outside of the plasma membrane. Cells were counter-stained with propidium iodide (PI) to determine the proportion of necrotic cells. Cell staining was performed according to the manufacturer's instructions. The second technique used terminal deoxynucleotidyl transferase (TdT)-mediated dUTP nick-end labeling (TUNEL) of fragmented DNA. […]

Assay [9] deals with primary ALL patient leukaemic cells. Put plainly: Apoptosis (annexin-V and TUNEL) of fresh ALL patient leukaemic cells incubated with HMA. It is filed as cell-based, human. The protocol: as §4
Two methods were used to determine if reduction in pHi induced apoptosis. The first used annexin-V conjugated to fluorescein isothiocyanate (FITC) (Pharmingen, San Diego, Calif.) to determine the translocation of phosphatidylserine from the inside to the outside of the plasma membrane. Cells were counter-stained with propidium iodide (PI) to determine the proportion of necrotic cells. Cell staining was performed according to the manufacturer's instructions. The second technique used terminal deoxynucleotidyl transferase (TdT)-mediated dUTP nick-end labeling (TUNEL) of fragmented DNA. Fluorochrome (FITC)-labelling of DNA (Boehringer Mannhein, Germany) was performed according to the manufacturer's instructions and measurements performed by flow cytometry.
The amiloride analogue, HMA (Sigma Chemicals, St. Louis, Mo.) was dissolved in dimethylsulphoxide (DMSO) and a stock solution (10^−3M) prepared in DMEM. Cells were incubated at concentrations ranging from 10^−7M to 10^−4M for varying periods of time specified in the results. After incubation, cells were washed and aliquoted according to the type of measurement (pHi or apoptosis) performed. Controls included cells not treated with HMA.

Assay [10] has as its system normal peripheral blood cells. Put plainly: Intracellular pH (flow cytometry and FRIM) of normal peripheral blood cells incubated with HMA. The class given is cell-based, human. The protocol: as §6, with “As shown in the next section, a pHi of 6.8 appears to be a critical value below which increased apoptosis occurs.” left out
as §5, with “temperature.” for “temperature. SNARF is excited at 488 nm and emits at 580 nm and 640 nm. The ratio of the emission wavelengths 640/580 was used (8) to estimate the pHi from a calibration curve. The calibration curve was performed using the nigericin clamp technique (21).”

Assay [11] deals with normal peripheral blood (PB) cells. Kind of assay: Proportion of cells in S-phase (propidium iodide) of peripheral blood incubated with phorbol ester. It is filed as cell-based, human. Conditions: untreated PB 1.19%±0.34%. As for the experimental part:
(§7) The pHi and the percentage of cells in S-phase of the cell cycle were simultaneously determined in aliquots of the same sample, using propidium iodide labeling. Prior to analysis, peripheral blood was also incubated with phorbol ester to activate the NHE-1. […] Furthermore, there was a direct correlation between pHi and proportion of cells in S-phase in both normal and neoplastic haemopoietic cells of various origins (FIG. 4). Thus, intracellular alkalinisation is associated with an increased proliferation and possibly transformation of haemopoietic cells. We hypothesized that unregulated proliferation of leukaemic cells might, at least in part, be due to suppression of normal apoptotic mechanisms. In this case, inhibitors of the NHE-1 would be expected to induce apoptosis in leukaemic cells, and we therefore examined the effects of NHE-1 inhibitors upon such cells.
Normal PB cells were incubated for 5 min with 10^−6 M phorbol-12-myristate-13-acetate (PMA, Sigma Chemical Company, St. Louis, Mo.) to non-specifically activate the NHE-1. […]
The proportion of cells in S-phase of the cell cycle was determined using the propidium iodide technique using the CycleTEST Plus DNA reagent kit (Becton-Dickinson, San Jose, Calif.). Data were acquired by flow cytometry, and analyzed using the Modfit LT software program (Verity Software House Inc).

Assay [12] shares this test system. Kind of assay: Intracellular pH (SNARF, flow cytometry) of peripheral blood incubated with phorbol ester. Conditions: PB incubated with phorbol ester (10^-6 M PMA, 5 min); unstimulated PB 7.03±0.04. It is filed as cell-based, human. As for the experimental part:
as §7, with “In this case, inhibitors of the NHE-1 would be expected to induce apoptosis in leukaemic cells, and we therefore examined the effects of NHE-1 inhibitors upon such cells.” left out
Measurement of pHi for hemopoietic cells has been described in detail elsewhere (8). Briefly, intracellular pH was measured by both flow cytometry and FRIM by incubating cells with carboxy SemiNaphthoRhodaFluor-1 acetoxymethyl ester, acetate (carboxy SNARF-1 AM, Molecular Probes, Eugene, Oreg.) for 15 min at room temperature. […] Flow cytometric results were analyzed using WinList Software (Verity Software House Inc. Topsham, ME) to obtain fluorescence ratio measurements. For both flow cytometry and FRIM analysis, the calibration curves were obtained and sample pHi values determined from the fluorescence ratio values using Table Curve software (SPSS Inc., Chicago, Ill.).

Where [13] appears, read: ALL patient cells, 10^-4M HMA, 1h.

NHE-1, sequence (P19634 whole entry, species assumed): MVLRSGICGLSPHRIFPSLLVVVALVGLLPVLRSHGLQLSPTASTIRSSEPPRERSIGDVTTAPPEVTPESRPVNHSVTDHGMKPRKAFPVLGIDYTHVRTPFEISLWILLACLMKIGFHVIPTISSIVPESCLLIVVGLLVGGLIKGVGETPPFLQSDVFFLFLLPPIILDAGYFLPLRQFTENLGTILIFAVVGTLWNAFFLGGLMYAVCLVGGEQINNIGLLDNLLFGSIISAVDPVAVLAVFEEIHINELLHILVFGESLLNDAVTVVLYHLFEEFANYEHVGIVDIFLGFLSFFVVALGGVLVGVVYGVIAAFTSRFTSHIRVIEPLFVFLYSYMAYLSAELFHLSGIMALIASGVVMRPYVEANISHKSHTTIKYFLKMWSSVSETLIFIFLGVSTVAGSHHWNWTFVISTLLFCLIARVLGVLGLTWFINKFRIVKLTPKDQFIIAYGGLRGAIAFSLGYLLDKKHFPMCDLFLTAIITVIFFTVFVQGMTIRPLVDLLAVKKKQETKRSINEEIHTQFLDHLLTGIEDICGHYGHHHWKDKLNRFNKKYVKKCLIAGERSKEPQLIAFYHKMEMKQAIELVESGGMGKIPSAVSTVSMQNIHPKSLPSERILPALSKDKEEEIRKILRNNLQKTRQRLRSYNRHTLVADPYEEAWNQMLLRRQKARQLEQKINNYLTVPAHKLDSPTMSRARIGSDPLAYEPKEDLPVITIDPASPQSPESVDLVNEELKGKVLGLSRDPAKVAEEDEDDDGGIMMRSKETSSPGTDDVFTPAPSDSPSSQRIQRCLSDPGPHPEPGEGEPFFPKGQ

As to `CCN(c1nc(N)c(C(=O)N=C(N)N)nc1Cl)C(C)C` [EIPA, 5-(N-ethyl-N-isopropyl) amiloride], in assay [1], the “potency and specificity of NHE-1 inhibition relative to amiloride” value was “greater potency and specificity of NHE-1 inhibition than amiloride itself”.

As for `NC(N)=NC(=O)c1nc(Cl)c(N2CCCCCC2)nc1N` [HMA, 5-(N,N-hexamethylene)-amiloride], the “percentage of cells undergoing apoptosis, annexin-V” value in [2] is listed as 70-80%. Also, in assay [3], the “pHi measured by flow cytometry” value was “too low to calibrate”. Moreover, in [1], the “potency and specificity of NHE-1 inhibition relative to amiloride” value is “greater potency and specificity of NHE-1 inhibition than amiloride itself”. For the same molecule, the “percentage of cells undergoing apoptosis, annexin-V” value in assay [4] was 70-80%. The molecule further yielded a pHi in assay [5] of 6.1±0.06. In assay [6], the “onset of RNA degradation after addition” value was “began to degrade between 30 min and 1h”; the “time to total RNA degradation” value was not above 3 h. This molecule registered a pHi in [7] of 5.6±0.07. In [8] (HMA 10^-7M to 10^-4M, up to 5h, annexin-V and TUNEL), the “proportion of apoptotic cells, time and concentration dependence” value is on record as “greatest proportion of apoptotic cells was found after 5h incubation with 10^−4M HMA”. In addition, the apoptotic cells entry in [8] (normal PB with HMA, both methods (annexin-V, TUNEL), when pHi reduced to about 6.8) is “about 25%”. In [9] (setting [13]), the “proportion of cells undergoing apoptosis, TUNEL” value is listed as “about 60%” and the “proportion of cells undergoing apoptosis, annexin-V” value was “about 85%”. The “apoptotic cells, both methods (annexin-V and TUNEL)” value in [9] (ALL patient cells, 10^-4M HMA, 5h) is recorded as “over 90%”. The “sensitivity of primary ALL cells versus normal PB” value in [9] (differential effect of HMA between normal and acute lymphoblastic leukaemic cells) was “greater sensitivity to HMA than normal PB”. Besides, the “time to induction of apoptosis” value in [9] (primary leukemic cells) is listed as not above 1 h. Moreover, the “cells either dead or undergoing apoptosis” value in assay [9] (primary leukemic cells, between 3 and 5 h of incubation) was “more than 90%”. In addition, the “inhibition (decrease of pHi), time and concentration dependence” value in [10] (HMA 10^-7M to 10^-4M, up to 5h, flow cytometry and FRIM) is given as “greatest inhibition occurred at 5h, using the highest HMA concentration”. Further, the “pHi reduced to” value in assay [10] (normal PB incubated with HMA, pHi at which about 25% apoptotic cells were measured) is given as “about 6.8”.

Take `CCCCCCCCCCCCCC(=O)O[C@@H]1[C@@H](C)[C@@]2(O)[C@@H](C=C(CO)C[C@]3(O)C(=O)C(C)=C[C@@H]23)[C@@H]2C(C)(C)[C@]12OC(C)=O` [phorbol ester, phorbol-12-myristate-13-acetate]: the “proportion of cells in S-phase” value in [11] is reported as 8.7%±0.17%. The same molecule gave a pHi in [12] of 7.32±0.043.
